The record followed here is patent US8975289B2, “Benzyl aralkyl ether compounds, method for preparing same, intermediate compounds, use of said compounds, method for treatment and/or prevention, pharmaceutical composition and medicament containing same” (priority 2009, dated 2015).

Values after ≈ are worked out from the molar mass of the structure shown.

What all share (type): cell-based
Experiment [1] deals with Trichophyton verrucosum 381. Nature of the experiment: Broth microdilution MIC (M38-A), filamentous fungi, strain VII. Particulars: for MIC: Trichophyton verrucosum; for Resistance or sensitivity of the strain to the agent (in words): clinical isolate strain VII. The protocol:
(§1) For the experiments of the present invention, the dermatophyte-type fungi strains that were obtained from clinical isolates and laboratory isolates, as described in Table 2 as follows, were used:
(§2) The fungal strains were grown on agar potato medium in a sloping chute at a temperature of 30° C. for a period of 7 to 15 days.
(§3) For the experiments, the compound 1-[2-(2,4-dichlorophenyl)-2-{[4-(trifluoromethyl)benzyl]oxy}ethyl]-1H-imidazole (BL-123) in the form of its nitrate salt and miconazole nitrate were used. Both compounds were dissolved in dimethyl sulfoxide (DMSO) to match the final concentration of the compound equal to or less than 1%.
(§4) The methodology used to test the sensitivity of the agent was of broth microdilution according to the method described in Standard M38-A (Reference method for broth dilution tests for determining the sensitivity to antifungal therapy for filamentous fungi; NCCLS, volume 22 No. 16, USA, 2008) as follows.
(§5) The fungus was cultivated pursuant to item 4.1. To the tubes wherein the fungi were grown, 5 mL of saline solution were added in order to extract the fungi from the agar surface. Then, this homogeneous suspension was transferred to a new tube and the colony-forming units (CFUs) were quantified according to counting methods: (i) in Sabouraud dextrose agar plates and (ii) in a Neubauer chamber.
(§6) Then, the fungi strains listed in Table 2 were inoculated in duplicate in a 96-well plate. There were used inocula of from 2 to 6×10^3 CFU/mL of fungi, per well, in a total volume of 0.2 mL of RPMI-1640 (containing L-glutamine and without bicarbonate) buffered at pH 7.0 with MOPS (acid 3-(N-morpholine) 15 propanesulfonic). The procedure was performed in a laminar flow.
(§7) The compounds to be tested were added in a serial dilution, in duplicate, in final concentrations of 16 μg/mL; 8 μg/mL; 4 μg/mL; 2 μg/mL; 1 μg/mL; 0.5 μg/mL; 0.25 μg/mL; 0.125 μg/mL; 0.0625 μg/mL; or 0.03125 μg/mL in culture medium present in each well.
(§8) The incubation of fungi with these compounds was performed by 4, 5, 6 and 7 days at temperatures from 30 to 35° C.
(§9) The fungi quantification was carried out with the growth of fungi in each well being compared to the growth occurred in the negative control by means of a mirror reading. The negative control is represented by fungi grown in culture medium in the absence of the tested compounds. The methodology of this comparison is the numerical rating to which the microdilution well was submitted. In this methodology, value 4 corresponds to no reduction of growth, value 3 corresponds to a slight reduction in growth or approximately 75% of the growth of the negative control, value 2 corresponds to a standout reduction in growth or approximately 50% of growth of negative control; value 1 corresponds to a slight growth or approximately 25% of the growth of the negative control, and value 0 corresponds to optically clear or absence of growth.
(§10) In this experiment, the minimum inhibitory concentration (MIC) is considered as the lowest concentration of the agent capable of inhibiting at least 80% of the growth of colony-forming units (CFUs).
(Broth dilution looks for growth in wells or tubes with falling amounts of substance.)

The test system of experiment [2] is Candida parapsilosis 22019. The experiment is described as follows: Broth microdilution MIC (M27-A2), yeast, strain XV. The conditions noted are these: strain XV 22019, 48 hours incubation; read-out: MIC. How it is done: For the experiments of the present invention (i) yeast strains obtained from clinical isolates and laboratory isolates, and (ii) bacterial strains obtained from laboratory isolates were used, as described in Table 5 as follows. The yeast strains were grown in culture medium Sabouraud Dextrose Agar maintained at a temperature of 35° C. for 48 hours. […] The compounds were dissolved in dimethyl sulfoxide (DMSO) to match the final concentration of the compound equal to or less than 1%. The methodology used to test the sensitivity of the agent was broth microdilution according to the method described in Standard M27-A2 (Reference method for broth dilution tests to determine the sensitivity of yeasts to antifungal therapy-second edition, NCCLS, volume 22 number 15, USA, 2002) as follows. […] Then the suspensions were diluted in culture medium RPMI-1640 (buffered with MOPS 0.165 mol/l) at a final concentration of 50 to 2500 CFU/mL. The diluted suspensions were inoculated in duplicate in a 96-well plate. The procedure was performed in a laminar flow. […] The incubation of fungi with these compounds was carried out for 48 hours at temperature of 30 to 35° C. […] We have agreed in this experiment that the turbid medium is the result of microbial growth and the presence of deposit and a clear medium represents the absence of microbial growth. The minimum inhibitory concentration (MIC) was defined as the lowest tested drug concentration that prevents any degree of […] growth.

The next experiment has as its system Microsporum gypseum 24. The experiment is described as follows: Broth microdilution MIC (M38-A), filamentous fungi, strain III. Particulars: Nannizzia gypsea. How it is done:
as §1, §2, §3, §4, §5, §6, §7, §8
(§11) The fungi quantification was carried out with the growth of fungi in each well being compared to the growth occurred in the negative control by means of a mirror reading. The negative control is represented by fungi grown in culture medium in the absence of the tested compounds. The methodology of this comparison is the numerical rating to which the microdilution well was submitted. […]

The subject of experiment [3] is Staphylococcus aureus 6538. Nature of the experiment: Broth microdilution MIC (M7-A6), bacteria, strain XVIII. The conditions noted are these: Staphylococcus aureus; strain XVIII 6538, 24 hours incubation; read-out: MIC. The protocol: For the experiments of the present invention (i) yeast strains obtained from clinical isolates and laboratory isolates, and (ii) bacterial strains obtained from laboratory isolates were used, as described in Table 5 as follows. […] The compounds were dissolved in dimethyl sulfoxide (DMSO) to match the final concentration of the compound equal to or less than 1%. The methodology used to test the sensitivity of the agent was broth microdilution according to the method described in Standard M7-A6 (Methodology of sensitivity tests to antimicrobial agents by dilution for bacteria with aerobic growth-6th Edition: NCCLS, volume 23, No. 2, USA, 2003), as follows. […] Then the suspensions were diluted in Mueller Hinton culture medium to a final concentration of 5×10^4CFU/mL. The diluted suspensions were inoculated in 0.1 mL in duplicates in […] plates. The procedure was performed in a laminar flow. […] Incubation of fungi with these compounds was carried out for 24 hours at a temperature of 30 to 35° C. […] We have agreed in this experiment that the turbid medium is the result of microbial growth and the presence of deposit and a clear medium represents the absence of microbial growth. The minimum inhibitory concentration (MIC) was defined as the lowest tested drug concentration that prevents any degree of bacterial growth.

The test system of experiment [4] is Trichophyton rubrum 28188. Nature of the experiment: Broth microdilution MIC (M38-A), filamentous fungi, strain V. The protocol: as §1, §2, §3, §4, §5, §6, §7, §8, §11
Experiment [5] deals with Trichophyton verrucosum 381. Nature of the experiment: Broth microdilution MIC (M38-A), filamentous fungi, strain IV. The protocol: as §1, §2, §3, §4, §5, §6, §7, §8, §11
In the next experiment the test system is Aspergillus Niger 16404. The experiment is described as follows: Broth microdilution MIC (M38-A), filamentous fungi, strain I. Particulars: for MIC: Aspergillus niger; for Resistance or sensitivity of the strain to the agent (in words): clinical isolate strain I. The protocol: as §1, §2, §3, §4, §5, §6, §7, §8, §9, §10
Where [6] appears, read: 96 h, strain VII 381, reading Day 4, average of four experiments.
Where [7] appears, read: 168 h, strain VII 381, reading Day 7, average of four experiments.
Where [8] appears, read: 96 h, strain III 24, reading Day 4, average of four experiments.
Setting [9] is: 168 h, strain III 24, reading Day 7, average of four experiments.
[10] abbreviates: 96 h, strain V 28188, reading Day 4, average of four experiments.
Where [11] appears, read: 168 h, strain V 28188, reading Day 7, average of four experiments.
The mark [12] stands for this setting: 96 h, strain IV 381, reading Day 4, average of four experiments.
Where [13] appears, read: 168 h, strain IV 381, reading Day 7, average of four experiments.
[14] abbreviates: NIGER16404, 96 h, strain I 16404, reading Day 4, average of four experiments, >=80% growth inhibition.
[15] abbreviates: NIGER16404, 168 h, strain I 16404, reading Day 7, average of four experiments.

As a reminder, the MIC is the least concentration at which growth counts as inhibited. For the molecule `FC(F)(F)c1ccc(COC(Cn2ccnc2)c2ccc(Cl)cc2Cl)cc1` (stereo not shown) [BL-123, 1-[2-(2,4-dichlorophenyl)-2-{[4-(trifluoromethyl)benzyl]oxy}ethyl]-1H-imidazole], the MIC in experiment [1] (setting [6]) was 4 µg/mL (≈ 9.63 µM); in experiment [1] (setting [7]), > 16 µg/mL; in experiment [2], 4 µg/mL (≈ 9.63 µM); in the experiment on Microsporum gypseum 24 (setting [8]) it was 0.25 µg/mL (≈ 0.602 µM); against Microsporum gypseum 24 (setting [9]) it was 0.25 µg/mL (≈ 0.602 µM); in experiment [3], 4 µg/mL (≈ 9.63 µM). Also, the MIC is 0.03 µg/mL (≈ 0.0722 µM) in experiment [4] (setting [10]); 0.03 µg/mL (≈ 0.0722 µM) in experiment [4] (setting [11]); > 16 µg/mL in experiment [5] (setting [12]); > 16 µg/mL in experiment [5] (setting [13]); 8 µg/mL (≈ 19.3 µM) against Aspergillus Niger 16404 (setting [14]); 8 µg/mL (≈ 19.3 µM) in the experiment on Aspergillus Niger 16404 (setting [15]). For the same molecule, the “Resistance or sensitivity of the strain to the agent (in words)” value (in experiment [1]; in the experiment on Aspergillus Niger 16404) was “sensitive” throughout.

Regarding `Clc1ccc(COC(Cn2ccnc2)c2ccc(Cl)cc2Cl)c(Cl)c1` (stereo not shown) [Miconazole, miconazole, reference compound], the MIC is > 16 µg/mL in experiment [1] (setting [6]); > 16 µg/mL in experiment [1] (setting [7]); 2 µg/mL (≈ 4.81 µM) in experiment [2]; 0.05 µg/mL (≈ 0.12 µM) against Microsporum gypseum 24 (setting [8]); 0.05 µg/mL (≈ 0.12 µM) against Microsporum gypseum 24 (setting [9]); 2 µg/mL (≈ 4.81 µM) in experiment [3]. Also, the MIC is 0.03 µg/mL (≈ 0.0721 µM) in experiment [4] (setting [10]); 0.06 µg/mL (≈ 0.144 µM) in experiment [4] (setting [11]); > 16 µg/mL in experiment [5] (setting [12]); > 16 µg/mL in experiment [5] (setting [13]); > 16 µg/mL in the experiment with Aspergillus Niger 16404 (setting [14]); > 16 µg/mL against Aspergillus Niger 16404 (setting [15]). Moreover, the “Resistance or sensitivity of the strain to the agent (in words)” value (in experiment [1]; in the experiment with Aspergillus Niger 16404) was “resistant” in each case.
